Measured values as given in US20050272726A1, “Novel medicaments for the treatment of respiratory diseases” (Boehringer Ingelheim International GmbH, priority 2004, published 2005).
Counter-ions that a name gives are not always drawn.

`Cc1cc(F)ccc1CC(C)(C)NCC(O)c1cc(O)cc2c1OCC(=O)N2` (centres unmarked) (as salt: hydrochloride) [Example 9, 8-{2-[2-(4-fluoro-2-methyl-phenyl)-1,1-dimethyl-ethylamino]-1-hydroxy-ethyl}-6-hydroxy-4H-benzo[1,4]oxazin-3-one] and `CC(C)(Cc1ccc(F)cc1F)NCC(O)c1cc(O)cc2c1OCC(=O)N2` (centres unmarked) (as salt: hydrochloride) cannot be ordered by melting point: 278 to 280 °C for the first, 279 to 280 °C for the second.

First: CC(C)(Cc1ccc(OCCCC(=O)O)cc1)NCC(O)c1cc(O)cc2c1OCC(=O)N2 (centres unmarked) [Example 14, 4-(4-{2-[2-hydroxy-2-(6-hydroxy-3-oxo-3,4-dihydro-2H-benzo[1,4]oxazin-8-yl)-ethylamino]-2-methyl-propyl}-phenoxy)-butyric acid]
Second: Cc1cc(CC(C)(C)NCC(O)c2cc(O)cc3c2OCC(=O)N3)ccc1F (centres unmarked) (as salt: hydrochloride) [Example 8, 8-{2-[2-(4-Fluoro-3-methyl-phenyl)-1,1-dimethyl-ethylamino]-1-hydroxy-ethyl}-6-hydroxy-4H-benzo[1,4]oxazin-3-one]
The melting point of the first is lower: 201 to 204 °C for the first, 278 to 280 °C for the second.

For `Cc1cc(C)cc(CC(C)(C)NCC(O)c2cc(O)cc3c2OCC(=O)N3)c1` (centres unmarked) (as salt: hydrochloride) [Example 13, 8-{2-[2-(3,5-dimethyl-phenyl)-1,1-dimethyl-ethylamino]-1-hydroxy-ethyl}-6-hydroxy-4H-benzo[1,4]oxazin-3-one], the melting point was 235 to 238 °C.
